From patent US20080227813A1, “Pharmaceutical compositions and methods for treating diseases associated with neurodegeneration” (priority 2006, published 2008)
Like-named read-outs stand apart in the source and are kept apart here.

Experiments:
CRL: NMRI BR mice = settings: mouse, 5000 mg/kg
Protocol: On the basis of acute oral toxicity of test item Compound I in CRL: NMRI BR mice the dose level 5000 mg/kg (equal to 3101 mg/kg free base) was examined in the micronucleus test.

[1] = test system: healthy young male subjects; experiment: Multiple dose safety study in male healthy volunteers; settings: human, 50 or 100 mg tid, 10 days
Protocol: The study was designed as a randomized, double-blind and single-center study, without therapeutic benefit for the subjects.
The study was performed in 18 healthy subjects divided into 2 groups of 9 subjects (groups A and B). Subjects of group A received 50 mg Compound I as a single dose on the morning of day 1; then 50 mg Compound I tid on days 2 to 9; and a single 50 mg dose on the morning of day 10.

patients with ALS = settings: high dose
Protocol: A clinical trial was conducted to assess the safety and tolerability of Compound I, at three dosages (75, 150, and 300 mg/day) as compared with placebo over 12 weeks of treatment in 80 patients with ALS. It was also conducted to determine the pharmacokinetic characterization of Compound I in serum, as well as cerebrospinal fluid (CSF) penetration, in a subset of the 80 patients participating in the study. This information was correlated with safety measures.
Methodology: This study was a multicenter, double-blind, placebo-controlled study of outpatients with ALS. Eighty subjects at 8-10 centers were enrolled. Subjects received placebo, 25 mg tid, 50 mg tid or 100 mg tid Compound I daily. All 80 subjects received treatment to determine safety and tolerability after 12 weeks of daily treatment. Follow-up visits occurred at 2, 4, 6, 8, 10, 12, and 16 weeks. A subset of participants were admitted to the General Clinical Research Center (GCRC), clinical research center or other department for serum pharmacokinetic studies at Baseline and Week 4, with additional trough serum sampling at Weeks 2, 8, and 12. Cerebrospinal fluid (CSF) penetration was only be evaluated at Week 4.

[2] = Double-blind multiple oral dose pharmacokinetics in male healthy volunteers
Protocol: The study was designed to compare the pharmacokinetic profile of Compound I from the following dose regimens: • A: Administration of 1 capsule containing 50 mg of Compound I or of 1 capsule of placebo, three times a day, total dose 150 mg. • B: Administration of 1 capsule containing 100 mg of Compound I or of 1 capsule of placebo, three times a day, total dose 300 mg.
The treatments were applied in parallel groups. […] The study was conducted according to the study protocol and in accordance with GCP.

[3] = human, in vivo

SMILES: [O-][n+]1cccc(/C(Cl)=N/OC[C@H](O)CN2CCCCC2)c1 [Compound I, N-[2-hydroxy-3-(1-piperidinyl)-propoxy]-pyridine-1-oxide-3-carboximidoyl chloride]
- mutagenicity in vivo (CRL: NMRI BR mice): non-mutagenic
- number of micronucleated polychromatic erythrocytes (MPCEs) (CRL: NMRI BR mice; in vivo): did not induce a significant increase
- serious adverse events or deaths [1]: no serious adverse events or deaths
- amount of metabolite No. 3 (dog liver cells): 4.9 % of the total radioactivity
- amount of metabolite No. 4 (dog liver cells): 3.3 % of the total radioactivity
- clearance (dog liver cells; dog, hepatocytes): 0.055 mL/h
- t1/2 (dog liver cells; dog, hepatocytes): 12.6 h
- effect on ALSFRS-R (patients with ALS; patients also treated with riluzole, not statistically significant): may improve ALSFRS-R
- effect on average ALSFRS-R score (patients with ALS; patients not treated with riluzole): no effect
- dose-adjusted AUC0-8 h ratio (2×50 mg dosing level/100 mg dosing level) ([2]; Day 1): 0.95
- dose-adjusted Cmax ratio (2×50 mg dosing level/100 mg dosing level) ([2]; Day 1): 0.94
- dose-adjusted AUC0-8 h ratio (2×50 mg dosing level/100 mg dosing level) ([2]; Day 10): 1.02
- dose-adjusted Cmax ratio (2×50 mg dosing level/100 mg dosing level) ([2]; Day 10): 0.88
- Racc accumulation ratio = AUC0-8 Day 10/AUC0-8 Day 1, GeoM ([2]; Treatment A, 50 mg tid): 1.512
- Racc accumulation ratio = AUC0-8 Day 10/AUC0-8 Day 1, MEAN ([2]; Treatment A, 50 mg tid): 1.525
- Racc accumulation ratio = AUC0-8 Day 10/AUC0-8 Day 1, MEAN ([2]; Treatment B, 100 mg tid): 1.426
- Racc accumulation ratio = AUC0-8 Day 10/AUC0-8 Day 1, GeoM ([2]; continuation of Treatment B (100 mg tid) under a head printed as Treatment A): 1.415
- AUC0-inf, GeoM ([2]; human, in vivo, 50 mg): 680 ng·h/mL
- AUC0-inf, MEAN ([2]; human, in vivo, 50 mg): 691 ng·h/mL
- AUC0-tz, GeoM ([2]; human, in vivo, 50 mg): 621 ng·h/mL
- AUC0-tz, MEAN ([2]; human, in vivo, 50 mg): 632 ng·h/mL
- LinPK = AUC0-8 Day 10/AUC0-inf, GeoM ([2]; human, in vivo, 50 mg): 1.148
- LinPK = AUC0-8 Day 10/AUC0-inf, MEAN ([2]; human, in vivo, 50 mg): 1.166
- AUC0-8, MEAN ([2]; human, in vivo, 100 mg): 1101 ng·h/mL
- AUC0-inf, GeoM ([2]; human, in vivo, 100 mg): 1303 ng·h/mL
- AUC0-inf, MEAN ([2]; human, in vivo, 100 mg): 1344 ng·h/mL
- AUC0-tz, GeoM ([2]; human, in vivo, 100 mg): 1266 ng·h/mL
- AUC0-tz, MEAN ([2]; human, in vivo, 100 mg): 1307 ng·h/mL
- AUCt, MEAN ([2]; human, in vivo, 100 mg): 1540 ng·h/mL
- LinPK = AUC0-8 Day 10/AUC0-inf, GeoM ([2]; human, in vivo, 100 mg): 1.172
- LinPK = AUC0-8 Day 10/AUC0-inf, MEAN ([2]; human, in vivo, 100 mg): 1.187
- route of removal [3]: mostly removed unchanged in urine
- Mean t1/2 values ([3]; po): 2.5 to 6.2 h
- Tmax values ([3]; po): 0.5 to 1.1 h
- t1/2 ([3]; po): 4 h
- AUC(0-t), GeoMean ([3]; po, 50 mg): 590 ng·h/mL
- AUC(0-t), Mean ([3]; po, 50 mg): 600 ng·h/mL
- AUC, GeoMean ([3]; po, 50 mg): 640 ng·h/mL
- AUC, Mean ([3]; po, 50 mg): 650 ng·h/mL
- Cmax, GeoMean ([3]; po, 50 mg): 160 ng/mL
- Cmax, Mean ([3]; po, 50 mg): 170 ng/mL
- MRT, GeoMean ([3]; po, 50 mg): 3.4 h
- MRT, Mean ([3]; po, 50 mg): 3.5 h
- Tmax, GeoMean ([3]; po, 50 mg): 0.82 h
- Tmax, Mean ([3]; po, 50 mg): 0.9 h
- t½, GeoMean ([3]; po, 50 mg): 3 h
- t½, Mean ([3]; po, 50 mg): 3.1 h
- AUC(0-t), GeoMean ([3]; po, 100 mg): 1400 ng·h/mL
- AUC(0-t), Mean ([3]; po, 100 mg): 1400 ng·h/mL
- AUC, GeoMean ([3]; po, 100 mg): 1600 ng·h/mL
- AUC, Mean ([3]; po, 100 mg): 1600 ng·h/mL
- Cmax, GeoMean ([3]; po, 100 mg): 390 ng/mL
- Cmax, Mean ([3]; po, 100 mg): 400 ng/mL
- MRT, GeoMean ([3]; po, 100 mg): 3.7 h
- MRT, Mean ([3]; po, 100 mg): 3.8 h
- Tmax, GeoMean ([3]; po, 100 mg): 1 h
- Tmax, Mean ([3]; po, 100 mg): 1.1 h
- t½, GeoMean ([3]; po, 100 mg): 3.5 h
- t½, Mean ([3]; po, 100 mg): 3.7 h
- AUC(0-t), GeoMean ([3]; po, 200 mg): 2700 ng·h/mL
- AUC(0-t), Mean ([3]; po, 200 mg): 2700 ng·h/mL
- AUC, GeoMean ([3]; po, 200 mg): 2800 ng·h/mL
- AUC, Mean ([3]; po, 200 mg): 2800 ng·h/mL
- Cmax, GeoMean ([3]; po, 200 mg): 890 ng/mL
- Cmax, Mean ([3]; po, 200 mg): 890 ng/mL
- MRT, GeoMean ([3]; po, 200 mg): 3.7 h
- MRT, Mean ([3]; po, 200 mg): 3.8 h
- Tmax, GeoMean ([3]; po, 200 mg): 0.82 h
- Tmax, Mean ([3]; po, 200 mg): 0.9 h
- t½, GeoMean ([3]; po, 200 mg): 3.1 h
- t½, Mean ([3]; po, 200 mg): 3.1 h
- AUC(0-t), GeoMean ([3]; po, 400 mg): 6200 ng·h/mL
- AUC(0-t), Mean ([3]; po, 400 mg): 6300 ng·h/mL
- AUC, GeoMean ([3]; po, 400 mg): 6300 ng·h/mL
- AUC, Mean ([3]; po, 400 mg): 6400 ng·h/mL
- Cmax, GeoMean ([3]; po, 400 mg): 1800 ng/mL
- Cmax, Mean ([3]; po, 400 mg): 1800 ng/mL
- MRT, GeoMean ([3]; po, 400 mg): 4.5 h
- MRT, Mean ([3]; po, 400 mg): 4.5 h
- Tmax, GeoMean ([3]; po, 400 mg): 0.82 h
- Tmax, Mean ([3]; po, 400 mg): 0.9 h
- t½, GeoMean ([3]; po, 400 mg): 4 h
- t½, Mean ([3]; po, 400 mg): 4.1 h
- AUC(0-t), GeoMean ([3]; po, 600 mg): 8900 ng·h/mL
- AUC(0-t), Mean ([3]; po, 600 mg): 9100 ng·h/mL
- AUC, GeoMean ([3]; po, 600 mg): 9000 ng·h/mL
- AUC, Mean ([3]; po, 600 mg): 9200 ng·h/mL
- Cmax, GeoMean ([3]; po, 600 mg): 2900 ng/mL
- Cmax, Mean ([3]; po, 600 mg): 3000 ng/mL
- MRT, GeoMean ([3]; po, 600 mg): 3.9 h
- MRT, Mean ([3]; po, 600 mg): 4 h
- Tmax, GeoMean ([3]; po, 600 mg): 0.5 h
- Tmax, Mean ([3]; po, 600 mg): 0.5 h
- t½, GeoMean ([3]; po, 600 mg): 4.2 h
- t½, Mean ([3]; po, 600 mg): 4.3 h
- AUC(0-t), GeoMean ([3]; po, 800 mg): 12000 ng·h/mL
- AUC(0-t), Mean ([3]; po, 800 mg): 12000 ng·h/mL
- AUC, GeoMean ([3]; po, 800 mg): 12000 ng·h/mL
- AUC, Mean ([3]; po, 800 mg): 12000 ng·h/mL
- Cmax, GeoMean ([3]; po, 800 mg): 3700 ng/mL
- Cmax, Mean ([3]; po, 800 mg): 3800 ng/mL
- MRT, GeoMean ([3]; po, 800 mg): 4.1 h
- MRT, Mean ([3]; po, 800 mg): 4.1 h
- Tmax, GeoMean ([3]; po, 800 mg): 0.76 h
- Tmax, Mean ([3]; po, 800 mg): 0.8 h
- t½, GeoMean ([3]; po, 800 mg): 3.4 h
- t½, Mean ([3]; po, 800 mg): 3.5 h
- amount of metabolite No. 1 (rat hepatocytes): 0.32 % of the total radioactivity
- amount of metabolite No. 2 (rat hepatocytes): 1.89 % of the total radioactivity
- amount of metabolite No. 3 (rat hepatocytes): 47.7 % of the total radioactivity
- amount of metabolite No. 4 (rat hepatocytes): 15.1 % of the total radioactivity
- clearance (rat hepatocytes; rat, hepatocytes): 0.84 mL/h
- t1/2 (rat hepatocytes; rat, hepatocytes): 0.82 h
